# Laboratory results from US12390435B2, “Electrophiles and electrophile pro-drugs as RAD51 inhibitors” (University of Pittsburgh—Of the Commonwealth System of …, priority 2018, dated 2025).
# Columns and labels:
# [1] = test system: MDA-MB-231 xenograft tumor; experiment: MDA-MB-231 xenograft tumor growth, 7.5 mg/kg/day oral gavage; type: in vivo, mice
# Protocol: MDA-MB-231 cells were injected into the fourth inguinal mammary fat pad of 6-week-old female athymic nude mice.
# [2] = test system: MDA-MB-231 cells; experiment: Cell cycle analysis with propidium iodide; type: cell-based; conditions: 5 μM NO2-OA versus DMSO
# Protocol: Samples were analyzed at the Flow Cytometry Core at MWRI utilizing a BD LSRII (BD).
# [3] = test system: MCF-10A cells; experiment: GSH and GSSG LC-MS/MS; type: cell-based; conditions: 5 μM, 0 to 12 hr
# Protocol: (§1) MCF-10A, MDA-MB-231, and MDA-MB-468 cells were seeded in 24-well plates at a density of 3×10^5 cells/well. […] At each time point, cell media was aspirated and washed 2 times with sterile PBS. Cells were then incubated with PBS containing 25 mM N-ethylmaleimide (NEM) for 15 min at 37° C. Derivatizing solution (50 μL of 15% MeOH, 40 mM HEPES, 50 mM NaCl, 1 mM EDTA, 2 μM [^13C2^15N]-GSH, 2 μM [^13C4^15N2]-GSSG, and 25 mM NEM) was added to each well and incubated for 15 min at room temperature. Next, 50 μL, of 10% (w/v) sulfosalicylic acid solution was immediately added to each well to stabilize GSH and GSSG. Supernatant was collected by centrifugation at 15,000 RPM for 10 min at 4° C. Samples were diluted 1:5 in 5% sulfosalicylic acid and 20 μL, was injected for HPLC-MS/MS analysis. Cell numbers at time 0 hr were quantitated by Hoechst 33258 DNA stain assay and used to normalized GSH or GSSG levels expressed as nmol/cells (×10^6).
# (§2) Samples were applied to the column at 30% B and eluted with a linear increase in solvent B (30-100% in 9.7 min). The column was washed at 100% B for 3 min before returning to initial conditions for equilibration (2 min). […] Sample [GSH] and [GSSG] were determined from analyte:I.S. area ratios, and intracellular GSH and GSSG were normalized to cell number (10^6), with results expressed as nmol GSH or GSSG per 10^6 cells.
# [4] = test system: MDA-MB-231 and MDA-MB-468 cells; experiment: GSH and GSSG LC-MS/MS; type: cell-based; conditions: 5 μM, 0 to 12 hr
# Protocol: as §1, §2
# [5] = test system: RelA in MDA-MB-231 and MDA-MB-468 cells; experiment: RelA protein level and polyubiquitination; type: cell-based
# Protocol: Lysates were clarified by centrifugation at 14,000×g for 10 min. Protein lysates (1 mg) were incubated with anti-RelA antibody and Protein G/A conjugated agarose beads (EMD Millipore, Bedford, MA) at 4° C., overnight. Immunoprecipitation fraction were obtained by centrifugation at 14,000×g for 1 min at RT and washed with lysis buffer three times. The immunoprecipitated RelA was resolved by 8% SDSPAGE gel, and transferred to nitrocellulose membrane (Bio-Rad) for immunoblotting probed with an anti-ubiquitin antibody (Santa Cruz Biotechnology). The blot was then stripped and probed with an anti-RelA antibody to assess amounts of RelA protein pull-down.
# Western blotting was performed. 20-60 μg of total lysates per lane were loaded on 7%, 10%, or 12% SDS-PAGE and transferred onto nitrocellulose or polyvinylidene difluoride membranes (Bio-Rad). The membranes were probed with primary antibodies against caspase-3, multi-drug resistance protein-1 (MRP1), poly [ADP ribose] polymerase-1 (PARP-1), ubiquitin, RelA; cyclin D1, p21, caspase-9, MRP4, IKKβ, pIKKβ, IκBα, or pIκBα (Cell Signaling); caspase-8 (R&D Systems). Samples were normalized to β-actin (Sigma-Aldrich) or GAPDH (Trevigen).
smiles,measurement,setting,value
"CCCCCCCCC(=CCCCCCCCC(=O)O)[N+](=O)[O-] [NO2-OA, 10-nitro-octadec-9-enoic acid]",xenograft tumor growth,"[1]; 7.5 mg/kg/day oral gavage, 27 days post-treatment, versus vehicle and NO2-SA",significantly reduced tumor growth
same,body weight during treatment,"[1]; 7.5 mg/kg/day, 4 weeks",no weight loss
same,overt toxicity,"[1]; 7.5 mg/kg/day, 4 weeks",no overt toxic effects
same,tumor NO2-OA levels,[1]; oral administration,increased murine tumor NO2-OA levels
same,cell cycle changes,[2],no significant changes to the cell cycle occurred
same,GSH:GSSG ratio after treatment,[3],maintained the GSH:GSSG ratio over the first 6 hr
same,GSH:GSSG ratio after treatment,[4],rapidly decreased
same,polyubiquitination of RelA,"[5]; 5 μM, 5 hr",promoted polyubiquitination of RelA
same,RelA protein abundance,"[5]; 5 μM, 24 hr",decreased the abundance of RelA
same,RelA mRNA levels,"[5]; all three cell lines (MDA-MB-231, MDA-MB-468, MCF-10A)",not altered
